# Assay results taken from ChEMBL document CHEMBL1125124, “Tertiary 2-haloethylamine derivatives of the muscarinic agent McN-A-343, [4-[[N-(3-chlorophenyl)carbamoyl]oxy]-2-butynyl]trimethylammonium chloride” (J Med Chem, 1990).
# Activity calls are given as the source filed them. No cut-off for these calls is given here.
# Legend:
# [1] = Rate constant (cyclization rate) in CD3CN-deuterated phosphate buffer at pH 7.4; format: ADME
# [2] = Half life was determined; format: ADME
# [3] = Lethal dose was determined in male Swiss-Webster mice by intravenous injection using up-and-down method; format: toxicity, organism-based; details: mouse, in vivo
# Mus musculus = assay: Peripheral muscarinic effect was evaluated in mice by intravenous injection; No visible tremors or salivation observed; format: functional, organism-based
SMILES,K1 [1] [min⁻¹],K2 [1] [min⁻¹],half-life [2] [h],LD50 [3] [µmol/kg],Activity (Mus musculus)
CN(CC#CCOC(=O)Nc1cccc(Cl)c1)CCCl,0.0089,0.099,1.87,166,–
C[N+](C)(C)CC#CCOC(=O)Nc1cccc(Cl)c1.[Cl-],–,–,–,3.7,inactive
CN(CC#CCOC(=O)Nc1cccc(Cl)c1)CCBr,0.27,–,–,57.2,–
